The source made the active and inactive calls. No cut-off for these calls is given here.

Data set [1] concerns the target T1, Polypeptide N-acetylgalactosaminyltransferase 2 (Homo sapiens, UniProt Q10471). Nature of the data set: Binding affinity of human recombinant FLAG-tagged ppGalNAcT2 expressed in HEK293 cells assessed as dissociation constant by SPR analysis. A general note: SPR reads the build-up and loss of mass on a sensor chip optically.
Data set [2] deals with SW480. In words: Antimigratory activity in human SW480 cells at 40 uM incubated for 48 hrs by crystal violet staining based method. Format: functional, cell-based.
Another data set has as its system RKO. Nature of the data set: Antimigratory activity in human RKO cells at 40 uM incubated for 48 hrs by crystal violet staining based method. Format: functional, cell-based.
In data set [3] the target is T1, Polypeptide N-acetylgalactosaminyltransferase 2. In words: Inhibition of ppGalNAcT2 in human HT-29 cells assessed as reduction in O-GalNAc glycans by measuring VVA lectin expression at 20 to 60 uM incubated for 48 hrs by Western blot analysis. It is filed as cell-based.
Data set [4] has the same target. Nature of the data set: Inhibition of ppGalNAcT2 in human HCT116 cells assessed as reduction in O-GalNAc glycosylation by measuring VVA lectin expression at 40 uM incubated for 48 hrs by Western blot analysis. It is filed as cell-based. Background: Immunoblotting shows a protein as a band on a membrane.
Data set [5] deals with HT-29. In words: Effect on ppGalNAcT7 expression level in human HT-29 cells at 40 uM incubated for 48 hrs by Q-PCR analysis. Conditions: ht-29, 48 h. It is filed as ADME, cell-based.
The test system of data set [6] is HT-29. In words: Effect on ppGalNAcT13 expression level in human HT-29 cells at 40 uM incubated for 48 hrs by Q-PCR analysis. It is filed as ADME, cell-based. Conditions: ht-29, 48 h.
Data set [7] deals with HT-29. Nature of the data set: Effect on ppGalNAcT3 expression level in human HT-29 cells at 40 uM incubated for 48 hrs by Q-PCR analysis. Format: ADME, cell-based. The conditions noted are these: ht-29, 48 h.
Data set [8] concerns the target Polypeptide N-acetylgalactosaminyltransferase 14 (Homo sapiens, UniProt Q96FL9). In words: Inhibition of catalytic activity of ppGalNAcT14 (unknown origin) using EA2 peptide as substrate incubated for 30 mins by HPLC-based enzyme assay.
Data set [9] relates to HT-29. Nature of the data set: Effect on N-glycans in human HT-29 cells assessed as change in ConA expression at 40 uM incubated for 48 hrs by Western blot analysis. The conditions noted are these: ht-29, 48 h. Format: ADME, cell-based.
The subject of data set [10] is HT-29. Nature of the data set: Effect on ppGalNAcT11 expression level in human HT-29 cells at 40 uM incubated for 48 hrs by Q-PCR analysis. The conditions noted are these: ht-29, 48 h. It is filed as ADME, cell-based.
Data set [11] deals with HT-29. In words: Effect on ppGalNAcT4 expression level in human HT-29 cells at 40 uM incubated for 48 hrs by Western blot analysis. It is filed as ADME, cell-based. The conditions noted are these: ht-29, 48 h.
Data set [12] concerns SW480. In words: Cytotoxicity against human SW480 cells at 40 uM incubated for 48 hrs by CCK-8 assay. It is filed as cell-based. The conditions noted are these: sw480, 48 h. (Tetrazolium assays rely on reduction of a dye to a coloured formazan, in cell work by metabolically active cells.)
Data set [13] deals with T1, Polypeptide N-acetylgalactosaminyltransferase 2. In words: Inhibition of catalytic activity of human recombinant FLAG-tagged ppGalNAcT2 using Muc5AC peptide as substrate incubated for 30 mins by HPLC-based enzyme assay.
The species named for a further data set is Cricetulus griseus. In words: Inhibition of ppGalNAcT2 in Chinese hamster ldlD cell lysates assessed as reduction in O-GalNAc glycosylation by measuring glycans VVA lectin expression at 0.5 to 4 uM incubated for 30 mins by Western blot analysis. It is filed as subcellular. The conditions noted are these: Lysate.
The target in data set [14] is T1, Polypeptide N-acetylgalactosaminyltransferase 2. Nature of the data set: Competitive inhibition of human recombinant FLAG-tagged ppGalNAcT2 expressed in HEK293 cells using EA2 peptide as substrate by HPLC-based enzyme assay.
Data set [15] has as its target T2, Polypeptide N-acetylgalactosaminyltransferase 13 (Homo sapiens, UniProt Q8IUC8).
T2 sequence (Q8IUC8 whole entry): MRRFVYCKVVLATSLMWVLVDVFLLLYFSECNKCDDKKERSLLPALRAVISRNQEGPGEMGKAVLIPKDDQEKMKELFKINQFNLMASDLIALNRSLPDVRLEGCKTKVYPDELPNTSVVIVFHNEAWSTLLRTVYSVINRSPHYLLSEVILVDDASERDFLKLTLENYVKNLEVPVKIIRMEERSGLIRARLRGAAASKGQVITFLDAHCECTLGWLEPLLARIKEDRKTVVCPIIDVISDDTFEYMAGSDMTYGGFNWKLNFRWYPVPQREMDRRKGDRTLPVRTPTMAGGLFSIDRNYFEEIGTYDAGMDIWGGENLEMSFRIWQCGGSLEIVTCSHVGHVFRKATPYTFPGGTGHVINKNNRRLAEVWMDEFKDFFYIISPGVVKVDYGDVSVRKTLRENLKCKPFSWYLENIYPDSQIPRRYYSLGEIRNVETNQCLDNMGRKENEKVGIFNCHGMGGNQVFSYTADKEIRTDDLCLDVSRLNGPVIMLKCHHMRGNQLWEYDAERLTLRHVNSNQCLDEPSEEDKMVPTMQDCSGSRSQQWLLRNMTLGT
Nature of the data set: Inhibition of catalytic activity of ppGalNAcT13 (unknown origin) using EA2 peptide as substrate incubated for 30 mins by HPLC-based enzyme assay.

The test system of data set [16] is HT-29. In words: Effect on ppGalNAcT2 expression level in human HT-29 cells at 40 uM incubated for 48 hrs by Q-PCR analysis. Format: ADME, cell-based. Conditions: ht-29, 48 h.
The subject of data set [17] is HT-29. Nature of the data set: Effect on PDPN expression level in human HT-29 cells at 40 uM incubated for 48 hrs by Q-PCR analysis. It is filed as ADME, cell-based. The conditions noted are these: ht-29, 48 h.
The target of data set [18] is T1, Polypeptide N-acetylgalactosaminyltransferase 2. In words: Binding affinity of human recombinant FLAG-tagged ppGalNAcT2 expressed in HEK293 cells assessed as association rate by SPR analysis.

T1 sequence (Q10471 whole entry): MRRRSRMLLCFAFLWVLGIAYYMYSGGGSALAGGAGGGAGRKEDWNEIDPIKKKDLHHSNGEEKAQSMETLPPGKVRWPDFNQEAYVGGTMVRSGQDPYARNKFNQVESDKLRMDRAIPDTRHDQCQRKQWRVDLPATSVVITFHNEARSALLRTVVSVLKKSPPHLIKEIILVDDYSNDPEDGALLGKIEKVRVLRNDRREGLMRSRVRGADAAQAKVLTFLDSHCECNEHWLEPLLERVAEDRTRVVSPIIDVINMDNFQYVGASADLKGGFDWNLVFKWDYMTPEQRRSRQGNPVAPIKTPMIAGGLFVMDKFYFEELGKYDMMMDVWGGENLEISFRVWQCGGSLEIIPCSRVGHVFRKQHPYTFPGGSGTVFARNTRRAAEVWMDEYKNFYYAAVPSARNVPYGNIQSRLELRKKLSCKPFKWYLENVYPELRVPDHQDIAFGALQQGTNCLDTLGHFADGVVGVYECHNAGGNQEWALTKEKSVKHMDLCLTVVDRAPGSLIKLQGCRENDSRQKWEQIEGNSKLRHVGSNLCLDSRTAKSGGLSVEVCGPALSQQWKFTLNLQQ
Sequence of Polypeptide N-acetylgalactosaminyltransferase 14 (Q96FL9 whole entry): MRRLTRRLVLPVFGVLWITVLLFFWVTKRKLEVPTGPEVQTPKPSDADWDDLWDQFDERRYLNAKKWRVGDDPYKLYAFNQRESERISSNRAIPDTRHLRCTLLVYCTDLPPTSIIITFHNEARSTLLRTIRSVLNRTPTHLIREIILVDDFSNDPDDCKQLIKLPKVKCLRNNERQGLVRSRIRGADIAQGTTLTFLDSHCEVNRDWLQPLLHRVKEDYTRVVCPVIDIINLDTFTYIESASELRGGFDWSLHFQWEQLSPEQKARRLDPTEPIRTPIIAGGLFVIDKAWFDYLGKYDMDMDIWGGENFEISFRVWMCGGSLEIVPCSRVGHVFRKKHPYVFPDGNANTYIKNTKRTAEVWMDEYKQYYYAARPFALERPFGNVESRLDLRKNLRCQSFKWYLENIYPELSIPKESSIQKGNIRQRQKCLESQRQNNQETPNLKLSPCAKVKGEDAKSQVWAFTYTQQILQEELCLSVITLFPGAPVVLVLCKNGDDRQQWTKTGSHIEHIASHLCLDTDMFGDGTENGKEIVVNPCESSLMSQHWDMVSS

The term Kd denotes the equilibrium constant for the complex coming apart. In general, IC50 refers to the concentration needed to halve the response being measured. By Ki is commonly meant the dissociation constant of the complex between target and ligand, obtained from inhibition or displacement. The kon is the second-order rate constant of association. As for `O=c1oc2c(O)c(O)ccc2c2cc(O)c(O)cc12`, in data set [1], the Kd is 294 nM. Moreover, the outcome in the data set on SW480 [2] and with RKO was Active. Besides, the inhibition result in [3] and in data set [4] was “Active” in each case. The Activity entry with HT-29 [5], in the data set on HT-29 [6], with HT-29 [7], in the data set on HT-29 [9], with HT-29 [10] and with HT-29 [11] was “Non-Toxic” each time. Also, the Activity result with SW480 [12], in the data set with HT-29 [16] and in the data set on HT-29 [17] was “Non-Toxic” each time. For the same compound, the IC50 in data set [8] came out at 460 nM; in data set [13] it was 2070 nM; in data set [15] it was 13800 nM. Further, the inhibition entry in the data set filed under Cricetulus griseus is “Dose-dependent effect”. In addition, in data set [14], the inhibitory constant (Ki) is 1070 nM. In addition, the kon in data set [18] worked out at 3532 M⁻¹ s⁻¹.
